# Experimental data taken from patent publication US6071919A, “Zwitterionic compositions and methods as biological response modifiers” (priority 1998, dated 2000).
# Entries after “also recorded” stand apart in the source; their conditions may differ.
# What was measured:
# [1] = Example Eight: patient with organophosphate induced polyneuropathy; type: in vivo, human
# Experimental: A person with organophosphate induced polyneuropathy (such as found in Agent Orange toxicity and/or Gulf War Syndrome) had significant numbness in both legs, decreased sensation in both hands, and decreased proprioception was given 8 mg/kg orally of zwitterionic piperazine (HEPES) for two weeks.
# [2] = Observations in HEPES-treated dogs; type: in vivo
# [3] = change of pKa per ° C.; cited from earlier work
# [4] = tested on: serum alkaline phosphatase; experiment: Example Six: serum alkaline phosphatase in healthy canines; type: in vivo, canine; details: up to 500 mg/kg, five canines
# Experimental: Five healthy canines were administered up to 500 mg/kg of HEPES.
# [5] = Treatment of myasthenia gravis patients with HEPES alone; type: in vivo, human; details: 300 mg/kg to 1000 mg/kg daily
# Experimental: (§1) To date, more than twenty-five patients have been treated with 300 mg/kg to 1000 mg/kg HEPES daily (no other agents or additional compositions).
# [6] = ADA: data of Schwarzenbach et al. (1955); cited from earlier work
# [7] = tested on: giant platelets and histiocytes; experiment: Giant platelets and histiocytes on peripheral smear; type: in vivo, animals; details: blood / peripheral smear
# Text: The amphoteric zwitterion compounds may be employed as active ingredients with other active ingredients, as well as other components and carriers typically used in pharmaceutical compositions; such as, but not limited to: buffers, stabilizers, dyes, antioxidants, dispersing agents, fillers, surfactants, silicones, bulking agents, pigments, salts, human or animal (natural or synthetic) cells and cellular components, antibiotics, drugs, vitamins, amino acids, proteins, serum and various other compounds and combinations thereof in varying amounts.
# [8] = Example Fifteen: patient with seizure disorder, EEG; type: in vivo, human; details: 5000 mg orally (2500 mg twice a day), two weeks
# Experimental: A person with a longstanding history of seizure disorder was poorly controlled and had recurrent seizures while taking Dilantin and phenobarbital. They started on 5000 mg zwitterionic piperazine orally (2500 mg twice a day) for two weeks. […] The zwitterionic piperazine (HEPES) has membrane stabilizing properties, is effective for anti-arrhythmic therapy, and is effective anti-seizure therapy.
# [9] = Treatment of rheumatoid arthritis patients with HEPES alone; type: in vivo, human; details: 300 mg/kg to 1000 mg/kg daily
# Experimental: as §1
# [10] = ADA: data of Schwarzenbach et al. (1955); cited from earlier work; remark: listed apart in the source
# [11] = tested on: cancer; experiment: Treatment of cancer patients with HEPES alone; type: in vivo, human; details: 300 mg/kg to 1000 mg/kg daily
# [12] = tested on: acute hymphocytic leukemia (ALL); experiment: Example Sixteen: patient with acute lymphocytic leukemia in blast crisis; type: in vivo, human; details: for Hemoglobin (Hgb): pre-infusion 10.5; for Blasts: pre-infusion 45%; for Platelets: pre-infusion 31,000; for White Blood Cells (WBC): pre-infusion 38,000
# Text: A person presented with acute hymphocytic leukemia (ALL).
# They were started on zwitterionic piperazine therapy (HEPES).
# Her baseline laboratory data was obtained following a blood transfusion before starting the HEPES;
# [13] = ADA: data of Schwarzenbach et al. (1955); cited from earlier work; remark: listed apart in the source
# [14] = cited from earlier work
# [15] = tested on: bone marrow / extramedullary hematopoiesis; experiment: Bone marrow and extramedullary hematopoiesis, in vivo tests; set-up: species or system dogs and humans
# Experimental: Further, the zwitterionic compounds reduce the mean inhibitory concentration (MIC) of susceptible […] in culture (in vitro) and enhances antibiotic activity in vivo. The zwitterionic compound may be used alone or with a carrier, such as sterile water or a saline solution. Enhancement and inducement of extramedullary hematopoiesis has been found in amounts of HEPES administered in an amount of about 18-20 mg/kilograms or greater for e.g. 40 mg/kg of body weight in dogs with daily intravenous injections over a defined time period of 1-2 weeks.
# [16] = tested on: hepatitis B; experiment: Example Eleven: patient with chronic hepatitis B infection; type: in vivo, human; details: 5000 mg i.v., after thirty days
# Text: After thirty days, their bilirubin fell to 3.0 and other liver enzymes were reduced by 25 percent or more.
# [17] = Antibiotic efficacy in vivo
# [18] = tested on: beta-hemolytic streptococci; experiment: Example Twelve: MIC of antibiotics with and without HEPES, streptococci; type: cell-based; details: agar gel cultures, colony counts of 10^6, with vs without HEPES
# Experimental: (§2) Routine agar gel cultures are inoculated with beta-hemolytic streptococci and gram […] staphylococci. The cultures were raised to colony counts of 10^6. The mean inhibitory concentration (MIC) with susceptible antibiotics was measured with and without the presence of zwitterionic piperazine (HEPES).
# [19] = tested on: HIV; experiment: Example Ten: patient with HIV infection and HIV associated polyneuropathy; type: in vivo; details: 5000 mg i.v. daily, after thirty days
# Experimental: A person with documented HIV infection had HIV associated polyneuropathy. They could not raise their legs without assistance. They were given 5000 mg intravenously of zwitterionic piperazine (HEPES) daily for thirty days. […] Their cluster determinates had risen and sensation and proprioception were improved.
# [20] = ADA: data of Schwarzenbach et al. (1955); cited from earlier work; remark: listed apart in the source
# [21] = tested on: gram negative staphylococci; experiment: Example Twelve: MIC of antibiotics with and without HEPES, staphylococci; type: cell-based; details: agar gel cultures, colony counts of 10^6, with vs without HEPES
# Experimental: as §2
# [22] = tested on: alkaline phosphatase; experiment: Decrease of alkaline phosphatase in mammals; type: in vivo
# Text: It is discovered that zwitterionic compounds, such as HEPES, decrease the production of alkaline phosphatase in mammals.
# [23] = 13.0 mg/kg I.V. increased to 80 mg/kg I.V.
# [24] = intravenous and oral application
compound,measurement,setting,value
"O=S(=O)(O)CCN1CCN(CCO)CC1 [HEPES, N-2 Hydroxyethylpiperazine-N'-2 Ethane Sulfonic Acid]",myelin integrity / organic phosphate induced polyneuropathy,[1]; 8 mg/kg orally,reversed the effect of organic phosphate induced polyneuropathy in the patient and restored myelin integrity
same,sensation and proprioception,"[1]; 8 mg/kg orally, end of two weeks",sensation and proprioception had returned
same,sensation and proprioception after reinstatement,[1]; two weeks after reinstatement,sensation and proprioception were again restored
same,symptoms after stopping the medicine,[1]; two weeks after stop,symptoms returned in two weeks
same,behaviour following injections,[2]; all dogs,all dogs became calm following injections
same,hematomas at the injection sites,[2]; all treated dogs,rapid resolution of hematomas at the injection sites
same,diuresis,[2]; certain dosages,marked diuresis at certain dosages
same,vascular integrity,[2]; treated groups,strong evidence of improved vascular integrity
same,respiratory infections,"[2]; while being treated, many in untreated group did",no animals in the treated group had any respiratory infections while being treated
same,αpKa /° C.,[3],-0.014
same,serum alkaline phosphatase,[4],not detected by standard laboratory methods in all canines
same,reduction in disease activity,[5],25%-50%
same,"Metal-Buffer Binding Constants Log KM, Ca^2+",[6],Negl
same,giant platelets and histiocytes,[7],production of giant platelets and histiocytes; also recorded: produces giant platelets and histiocytes in blood
same,EEG focal activity,[8],significantly decreased focal activity
same,reduction in disease activity,[9],25%-50%
same,"Metal-Buffer Binding Constants Log KM, Cu^2+",[10],Negl
same,decrease in tumor volume and/or tumor activity,[11]; all patients with cancer,25%-50%
same,cancer pain response,[11]; all patients with cancer pain,All patients with cancer pain have responded with pain reduction
same,blast crisis,[12]; [23],cessation of the blasts crisis
same,platelet destruction,[12]; [23],Platelet destruction has ceased
same,Hemoglobin (Hgb),[12]; Day 3 of HEPES treatment,8.5 g/dL
same,Blasts,[12]; Day 3 of HEPES treatment,45%
same,Platelets,[12]; Day 3 of HEPES treatment,"14,000"
same,White Blood Cells (WBC),[12]; Day 3 of HEPES treatment,"53,000"
same,Hemoglobin (Hgb),[12]; Day 7 of HEPES treatment,11.6 g/dL
same,Blasts,[12]; Day 7 of HEPES treatment,5.0%
same,Platelets,[12]; Day 7 of HEPES treatment,"17,000"
same,White Blood Cells (WBC),[12]; Day 7 of HEPES treatment,"6,300"
same,"Metal-Buffer Binding Constants Log KM, Mg^2+",[13],Negl
same,Saturated Solution at 0°,[14],2.25 M
same,minimal effective dose,"[15]; Canis lupus familiaris, iv, dogs, daily i.v., 1-2 weeks, ""or greater"", read-out: amount of HEPES giving enhancement and inducement of extramedullary hematopoiesis",18 to 20 mg/kg
same,extramedullary hematopoiesis,[15]; [24],induce extramedullary hematopoiesis in patients
same,hypercellular bone marrow,[15]; [24],induce hypercellular bone marrow
same,reduction of other liver enzymes,[16],≥ 25%
same,bilirubin level,[16]; baseline 5.0,3.0
same,antibiotic efficacy in vivo,[17],enhanced the antibiotic efficacy in vivo
same,decrease in MIC of each antibiotic in culture (in vitro),[18],more than 10%
same,Total viral load determined by PCR,[19],decreased
same,ability to raise legs,[19],could raise their legs without assistance
same,cluster determinates,[19],had risen
same,sensation and proprioception,[19],improved
same,"Metal-Buffer Binding Constants Log KM, Mn^2+",[20],Negl
same,decrease in MIC of each antibiotic in culture (in vitro),[21],more than 10%
same,fall of baseline alkaline phosphatase levels,[22]; in excess of 100 mg/kg to 500 mg/kg or greater,fall by a factor of two or greater
same,alkaline phosphatase measurability,"[22]; in excess of 100 mg/kg to 500 mg/kg or greater, some cases",not measurable by standard laboratory methods
same,concentration at which decrease of alkaline phosphatase appears to start,[22]; mammals,approximately 12 mg/kg
